# Measurements published in PubChem BioAssay AID1259407 (Chemical Carcinogenesis Research Information System (CCRIS), 2018).
# Active and inactive are the calls of the source. How the calls were made is not given here.
# Test system: CCRIS mutagenicity, Ames/micronucleus/aberration tests
# Experiment: CCRIS mutagenicity studies
# [1] = Test System: AMES SALMONELLA TYPHIMURIUM, Strain/Indicator: TA98, Metabolic Activation: NONE, Method: PREINCUBATION
# [2] = Test System: AMES SALMONELLA TYPHIMURIUM, Strain/Indicator: TA100, Metabolic Activation: NONE, Method: PREINCUBATION
# [3] = Test System: AMES SALMONELLA TYPHIMURIUM, Strain/Indicator: TA98, Metabolic Activation: NONE, Method: STANDARD PLATE
# [4] = Test System: AMES SALMONELLA TYPHIMURIUM, Strain/Indicator: TA100, Metabolic Activation: NONE, Method: STANDARD PLATE
# [5] = Test System: AMES SALMONELLA TYPHIMURIUM, Strain/Indicator: TA100, Metabolic Activation: S-9, Method: STANDARD PLATE
smiles,measurement,setting,value
O=[N+]([O-])c1ccc2c(c1)Oc1ccc([N+](=O)[O-])cc1O2,mutagenic call,"Test System: AMES SALMONELLA TYPHIMURIUM, Strain/Indicator: TA98(1,8-DNP6), Metabolic Activation: NONE, Method: PREINCUBATION",active; positive
same,mutagenic call,"Test System: AMES SALMONELLA TYPHIMURIUM, Strain/Indicator: TA98(1,8-DNP6), Metabolic Activation: NONE, Method: SUSPENSION",active; positive
same,mutagenic call,"Test System: AMES SALMONELLA TYPHIMURIUM, Strain/Indicator: TA98(1,8-DNP6), Metabolic Activation: RAT, LIVER, S-9, PCB (5%), Method: PREINCUBATION",active; positive
same,mutagenic call,"Test System: AMES SALMONELLA TYPHIMURIUM, Strain/Indicator: TA98(NR), Metabolic Activation: NONE, Method: PREINCUBATION",inactive; negative
same,mutagenic call,"Test System: AMES SALMONELLA TYPHIMURIUM, Strain/Indicator: TA98(NR), Metabolic Activation: NONE, Method: SUSPENSION",active; positive
same,mutagenic call,"Test System: AMES SALMONELLA TYPHIMURIUM, Strain/Indicator: TA98(NR), Metabolic Activation: RAT, LIVER, S-9 (15%), Method: PREINCUBATION",active; positive
same,mutagenic call,"Test System: AMES SALMONELLA TYPHIMURIUM, Strain/Indicator: TA98(NR), Metabolic Activation: RAT, LIVER, S-9, 3-METHYLCHOLANTHRENE (15%), Method: PREINCUBATION",active; positive
same,mutagenic call,"Test System: AMES SALMONELLA TYPHIMURIUM, Strain/Indicator: TA98(NR), Metabolic Activation: RAT, LIVER, S-9, BETA-NAPHTHOFLAVONE (15%), Method: PREINCUBATION",active; positive
same,mutagenic call,"Test System: AMES SALMONELLA TYPHIMURIUM, Strain/Indicator: TA98(NR), Metabolic Activation: RAT, LIVER, S-9, PCB (5 OR 15%), Method: PREINCUBATION",active; positive
same,mutagenic call,"Test System: AMES SALMONELLA TYPHIMURIUM, Strain/Indicator: TA98(NR), Metabolic Activation: RAT, LIVER, S-9, PHENOBARBITAL (15%), Method: PREINCUBATION",active; positive
same,mutagenic call,[1],active; positive
same,mutagenic call,"Test System: AMES SALMONELLA TYPHIMURIUM, Strain/Indicator: TA98, Metabolic Activation: NONE, Method: SUSPENSION",active; positive
same,mutagenic call,"Test System: AMES SALMONELLA TYPHIMURIUM, Strain/Indicator: TA98, Metabolic Activation: RAT, LIVER, S-9, PCB (5%), Method: PREINCUBATION",active; positive
same,mutagenic call,"Test System: AMES SALMONELLA TYPHIMURIUM, Strain/Indicator: TA98, Metabolic Activation: RAT, LIVER, S-9, PCB, Method: SUSPENSION",active; positive
same,mutagenic call,[2],inactive; negative
same,mutagenic call,"Test System: AMES SALMONELLA TYPHIMURIUM, Strain/Indicator: TA100, Metabolic Activation: NONE, Method: SUSPENSION",inactive; negative
same,mutagenic call,"Test System: AMES SALMONELLA TYPHIMURIUM, Strain/Indicator: TA100, Metabolic Activation: RAT, LIVER, S-9, PCB, Method: PREINCUBATION",inactive; negative
same,mutagenic call,"Test System: AMES SALMONELLA TYPHIMURIUM, Strain/Indicator: TA100, Metabolic Activation: RAT, LIVER, S-9, PCB, Method: SUSPENSION",inactive; negative
COC(=O)CC(=O)OC,mutagenic call,[1],inactive; negative
same,mutagenic call,"Test System: AMES SALMONELLA TYPHIMURIUM, Strain/Indicator: TA98, Metabolic Activation: RAT LIVER S-9, PHENOBARBITAL AND BETA-NAPHTHOFLAVONE, Method: PREINCUBATION",inactive; negative
same,mutagenic call,[2],inactive; negative
same,mutagenic call,"Test System: AMES SALMONELLA TYPHIMURIUM, Strain/Indicator: TA100, Metabolic Activation: RAT LIVER S-9, PHENOBARBITAL AND BETA-NAPHTHOFLAVONE, Method: PREINCUBATION",inactive; negative
same,mutagenic call,"Test System: AMES SALMONELLA TYPHIMURIUM, Strain/Indicator: TA1535, Metabolic Activation: NONE, Method: PREINCUBATION",inactive; negative
same,mutagenic call,"Test System: AMES SALMONELLA TYPHIMURIUM, Strain/Indicator: TA1535, Metabolic Activation: RAT LIVER S-9, PHENOBARBITAL AND BETA-NAPHTHOFLAVONE, Method: PREINCUBATION",inactive; negative
same,mutagenic call,"Test System: AMES SALMONELLA TYPHIMURIUM, Strain/Indicator: TA1537, Metabolic Activation: NONE, Method: PREINCUBATION",inactive; negative
same,mutagenic call,"Test System: AMES SALMONELLA TYPHIMURIUM, Strain/Indicator: TA1537, Metabolic Activation: RAT LIVER S-9, PHENOBARBITAL AND BETA-NAPHTHOFLAVONE, Method: PREINCUBATION",inactive; negative
same,mutagenic call,"Test System: E.COLI, Strain/Indicator: WP2UVRA/PKM101, Metabolic Activation: NONE, Method: PREINCUBATION",inactive; negative
same,mutagenic call,"Test System: E.COLI, Strain/Indicator: WP2UVRA/PKM101, Metabolic Activation: RAT LIVER S-9, PHENOBARBITAL AND BETA-NAPHTHOFLAVONE, Method: PREINCUBATION",inactive; negative
COC(=O)c1oc([N+](=O)[O-])c(Cl)c1Cl,mutagenic call,[3],active; positive
same,mutagenic call,"Test System: AMES SALMONELLA TYPHIMURIUM, Strain/Indicator: TA100(NR), Metabolic Activation: NONE, Method: STANDARD PLATE",active; positive
same,mutagenic call,"Test System: AMES SALMONELLA TYPHIMURIUM, Strain/Indicator: TA100, Metabolic Activation: NONE, Method: STANDARD PLATE (ANAEROBIC INCUBATION)",active; positive
CCSCCSP(=S)(OC)OC,mutagenic call,"Test System: AMES SALMONELLA TYPHIMURIUM, Strain/Indicator: TA97A, Metabolic Activation: NONE, Method: STANDARD PLATE",inactive; negative
same,mutagenic call,"Test System: AMES SALMONELLA TYPHIMURIUM, Strain/Indicator: TA97A, Metabolic Activation: PLANT, HOMOGENATE, S-14, Method: STANDARD PLATE",inactive; negative
same,mutagenic call,"Test System: AMES SALMONELLA TYPHIMURIUM, Strain/Indicator: TA97A, Metabolic Activation: S-9, Method: STANDARD PLATE",inactive; negative
same,mutagenic call,[3],inactive; negative
same,mutagenic call,"Test System: AMES SALMONELLA TYPHIMURIUM, Strain/Indicator: TA98, Metabolic Activation: PLANT, HOMOGENATE, S-14, Method: STANDARD PLATE",inactive; negative
same,mutagenic call,"Test System: AMES SALMONELLA TYPHIMURIUM, Strain/Indicator: TA98, Metabolic Activation: S-9, Method: STANDARD PLATE",inactive; negative
same,mutagenic call,[4],inactive; negative
same,mutagenic call,"Test System: AMES SALMONELLA TYPHIMURIUM, Strain/Indicator: TA100, Metabolic Activation: PLANT, HOMOGENATE, S-14, Method: STANDARD PLATE",inactive; negative
same,mutagenic call,[5],inactive; negative
same,mutagenic call,"Test System: AMES SALMONELLA TYPHIMURIUM, Strain/Indicator: TA1535, Metabolic Activation: PLANT, HOMOGENATE, S-14, Method: STANDARD PLATE",inactive; negative
same,mutagenic call,"Test System: AMES SALMONELLA TYPHIMURIUM, Strain/Indicator: TA1535, Metabolic Activation: S-9, Method: STANDARD PLATE",inactive; negative
same,mutagenic call,"Test System: AMES SALMONELLA TYPHIMURIUM, Strain/Indicator: TA1535, Metabolic Activation: S-9 MIX, Method: STANDARD PLATE",active; positive
Cc1ccc(C)c2c1[nH]c1ccccc12,mutagenic call,[3],inactive; negative
same,mutagenic call,"Test System: AMES SALMONELLA TYPHIMURIUM, Strain/Indicator: TA98, Metabolic Activation: RAT LIVER S-9, AROCLOR 1254, Method: STANDARD PLATE",active; positive
same,mutagenic call,[4],inactive; negative
same,mutagenic call,"Test System: AMES SALMONELLA TYPHIMURIUM, Strain/Indicator: TA100, Metabolic Activation: RAT LIVER S-9, AROCLOR 1254, Method: STANDARD PLATE",inactive; negative
Nc1cccc2c(Cl)nsc12,mutagenic call,[5],active; positive
